Among the test systems are Candida albicans; Bacillus cereus; Escherichia coli; Staphylococcus aureus.
Common to all, as to assay: ≥ marks a high value that may be exact or a test limit, other limits are often not marked, values filed in µg/mL are converted to µM

Usually MIC stands for the smallest concentration in the dilution series that meets the test's criterion for growth inhibition. Read a low MIC as a more susceptible organism.

≈ marks a conversion by molar mass, not a printed value.

With `NCCCC[C@H](NC(=O)[C@H](CCC(=O)O)NC(=O)[C@@H](N)CC(=O)O)C(=O)NCC(=O)N1CCC[C@H]1C(=O)N[C@@H](CCCCN)C(=O)N[C@@H](Cc1c[nH]c2ccccc12)C(=O)N[C@@H](CCCCN)C(=O)N[C@@H](CCCN=C(N)N)C(=O)O` [DEKGPKWKR], the MIC against Candida albicans amounted to 30.8 µM (≈ 35.2 µg/mL).

Regarding `CC(C)C[C@H](NC(=O)[C@@H](N)Cc1ccccc1)C(=O)NCC(=O)N[C@@H](CCCCN)C(=O)N[C@H](C(=O)N[C@@H](Cc1ccccc1)C(=O)N[C@@H](CCCCN)C(=O)NCC(=O)N[C@@H](C)C(=O)N[C@@H](CO)C(=O)N[C@@H](CCCCN)C(=O)N[C@H](C(=O)N[C@@H](Cc1ccccc1)C(=O)NCC(=O)N[C@@H](C)C(=O)N[C@H](C(=O)N[C@@H](Cc1ccccc1)C(=O)NCC(=O)N[C@@H](CCCCN)C(=O)N[C@H](C(=O)O)C(C)C)C(C)C)C(C)C)C(C)C` [FLGKVFKGASKVFGAVFGKV], the MIC against Bacillus cereus is at least 61.3 µM; in the experiment with Escherichia coli it was 15.3 µM (≈ 32 µg/mL); with Staphylococcus aureus it was above 123 µM.

With `CC(C)C[C@H](NC(=O)[C@H](CCCCN)NC(=O)[C@H](Cc1ccccc1)NC(=O)[C@@H](NC(=O)[C@H](CCCCN)NC(=O)CNC(=O)[C@H](CC(C)C)NC(=O)[C@@H](N)Cc1ccccc1)C(C)C)C(=O)N[C@@H](C)C(=O)N[C@@H](CO)C(=O)N[C@@H](CCCCN)C(=O)N[C@H](C(=O)N[C@@H](Cc1ccccc1)C(=O)NCC(=O)N[C@@H](C)C(=O)N[C@H](C(=O)N[C@@H](Cc1ccccc1)C(=O)NCC(=O)N[C@@H](CCCCN)C(=O)N[C@H](C(=O)O)C(C)C)C(C)C)C(C)C` [FLGKVFKLASKVFGAVFGKV], the values for the MIC with Bacillus cereus, against Escherichia coli and in the experiment with Staphylococcus aureus were 3.73 µM (≈ 8 µg/mL), 7.47 µM (≈ 16 µg/mL) and 3.73 µM (≈ 8 µg/mL), respectively.

For `CC(C)C[C@H](NC(=O)[C@@H](N)Cc1ccccc1)C(=O)NCC(=O)N[C@H](C(=O)N[C@H](C(=O)N[C@@H](Cc1ccccc1)C(=O)N[C@@H](CCCCN)C(=O)NCC(=O)N[C@@H](C)C(=O)N[C@@H](CO)C(=O)N[C@@H](CCCCN)C(=O)N[C@H](C(=O)N[C@@H](Cc1ccccc1)C(=O)N1CCC[C@H]1C(=O)N[C@@H](C)C(=O)N[C@H](C(=O)N[C@@H](Cc1ccccc1)C(=O)NCC(=O)N[C@@H](CCCCN)C(=O)N[C@H](C(=O)O)C(C)C)C(C)C)C(C)C)C(C)C)C(C)C` [FLGVVFKGASKVFPAVFGKV], the MIC against Bacillus cereus is at least 122 µM; against Escherichia coli, above 122 µM; in the experiment with Staphylococcus aureus, above 122 µM.

For the molecule `CC(C)C[C@H](NC(=O)[C@H](CCCCN)NC(=O)[C@H](Cc1ccccc1)NC(=O)[C@@H](NC(=O)[C@@H](NC(=O)CNC(=O)[C@H](CC(C)C)NC(=O)[C@@H](N)Cc1ccccc1)C(C)C)C(C)C)C(=O)N[C@@H](C)C(=O)N[C@@H](CO)C(=O)N[C@@H](CCCCN)C(=O)N[C@H](C(=O)N[C@@H](Cc1ccccc1)C(=O)N[C@@H](CCCCN)C(=O)N[C@@H](C)C(=O)N[C@H](C(=O)N[C@@H](Cc1ccccc1)C(=O)NCC(=O)N[C@@H](CCCCN)C(=O)N[C@H](C(=O)O)C(C)C)C(C)C)C(C)C` [FLGVVFKLASKVFKAVFGKV], the minimal inhibitory concentration (MIC) in the experiment on Bacillus cereus stood at 3.66 µM (≈ 8 µg/mL); against Escherichia coli, 58.6 µM (≈ 128 µg/mL); in the experiment on Staphylococcus aureus it was 3.66 µM (≈ 8 µg/mL).

`CC(C)C[C@H](NC(=O)CNC(=O)[C@H](C)NC(=O)[C@@H](N)CCCCN)C(=O)N[C@@H](C)C(=O)N[C@@H](Cc1ccccc1)C(=O)N1CCC[C@H]1C(=O)N[C@H](C(=O)NCC(=O)N[C@@H](CCCN=C(N)N)C(=O)N[C@H](C(=O)N[C@@H](Cc1cnc[nH]1)C(=O)N[C@@H](CCCN=C(N)N)C(=O)N[C@@H](CC(C)C)C(=O)N[C@@H](CC(C)C)C(=O)N[C@@H](CCCN=C(N)N)C(=O)N[C@@H](CCCCN)C(=O)O)C(C)C)C(C)C` [KAGLAFPVGRVHRLLRK] yielded an MIC against Candida albicans of 133 µM (≈ 255 µg/mL).

With `CC(=O)N[C@@H](CCCCN)C(=O)N[C@@H](Cc1ccc(O)cc1)C(=O)N[C@H](C(=O)NCC(=O)N[C@@H](CCCCN)C(=O)N[C@@H](CS)C(=O)N[C@@H](Cc1ccc(O)cc1)C(=O)N[C@@H](CCCCN)C(=O)N[C@@H](CCCCN)C(=O)N[C@@H](CCCCN)C(=O)N[C@@H](CC(N)=O)C(=O)N[C@@H](CCC(=O)O)C(=O)N[C@@H](CS)C(=O)N[C@@H](CCCCN)C(N)=O)[C@@H](C)O` [KYTGKCYKKKNECK], the MIC in the experiment on Candida albicans was found to be 2.5 µM (≈ 4.41 µg/mL).

In the case of `CC[C@H](C)[C@H](NC(=O)[C@@H](NC(=O)[C@H](C)NC(=O)[C@@H]1CCCN1C(=O)[C@@H](NC(=O)[C@@H](NC(=O)[C@H](CCCCN)NC(=O)[C@H](CO)NC(=O)[C@H](C)NC(=O)[C@H](CC(C)C)NC(=O)[C@H](CO)NC(=O)CNC(=O)[C@@H](NC(=O)[C@@H](NC(=O)CNC(=O)[C@@H](N)CC(C)C)C(C)C)C(C)C)C(C)C)C(C)C)C(C)C)C(=O)N[C@@H](CO)C(=O)N[C@@H](CCCCN)C(=O)N[C@H](C(=O)N[C@@H](CCCCN)C(=O)O)C(C)C` [LGVVGSLASKVVPAVISKVK], the MIC against Bacillus cereus was at least 131 µM; in the experiment with Escherichia coli, above 131 µM.

Consider `CSCC[C@H](N)C(=O)N[C@H](C(=O)N[C@H](C(=O)N[C@@H](Cc1ccccc1)C(=O)N[C@@H](CO)C(=O)N[C@H](C(=O)N1CCC[C@H]1C(=O)N[C@@H](CCCCN)C(=O)N[C@@H](Cc1ccccc1)C(=O)N[C@@H](CCCCN)C(=O)N[C@@H](CO)C(=O)N[C@H](C(=O)N[C@H](C(=O)N[C@@H](C)C(=O)N[C@@H](CCCCN)C(=O)N[C@@H](CC(C)C)C(=O)N[C@@H](CC(C)C)C(=O)N[C@@H](CO)C(=O)N[C@@H](CO)C(=O)N[C@@H](C)C(=O)O)C(C)C)[C@@H](C)O)C(C)C)C(C)C)C(C)C` [MVVFSVPKFKSTVAKLLSSA], for which the MIC in the experiment with Bacillus cereus is at least 120 µM; against Escherichia coli, above 120 µM.

Consider `CC[C@H](C)[C@H](NC(=O)[C@@H](NC(=O)[C@H](C)NC(=O)[C@@H]1CCCN1C(=O)[C@@H](NC(=O)[C@@H](NC(=O)[C@H](CCCCN)NC(=O)[C@H](CO)NC(=O)[C@H](C)NC(=O)[C@H](CC(C)C)NC(=O)[C@H](CCCN=C(N)N)NC(=O)CNC(=O)[C@H](CC(C)C)NC(=O)[C@H](C)NC(=O)[C@@H](N)CO)C(C)C)C(C)C)C(C)C)C(=O)NCC(=O)N[C@@H](CCCCN)C(=O)N[C@H](C(=O)N[C@H](C(=O)N[C@H](C(=O)O)[C@@H](C)O)[C@@H](C)O)C(C)C` [SALGRLASKVVPAVIGKVTT], for which the MIC is at least 130 µM in the experiment on Bacillus cereus and above 130 µM against Escherichia coli.

Turning to `CC(C)C[C@H](NC(=O)[C@H](C)NC(=O)[C@@H](NC(=O)CNC(=O)[C@H](CCCCN)NC(=O)[C@@H](NC(=O)[C@@H](NC(=O)[C@H](CO)NC(=O)[C@H](CO)NC(=O)CNC(=O)[C@@H](NC(=O)[C@@H]1CCCN1C(=O)[C@H](CCCCN)NC(=O)[C@@H](NC(=O)[C@@H](N)CO)C(C)C)C(C)C)C(C)C)C(C)C)[C@@H](C)O)C(=O)N[C@H](C(=O)N[C@@H](CCCCN)C(=O)N[C@@H](Cc1ccccc1)C(=O)N[C@@H](Cc1ccccc1)C(=O)NCC(=O)O)C(C)C` [SVKPVGSSVVKGTALVKFFG], the MIC was at least 128 µM with Bacillus cereus and above 128 µM in the experiment on Escherichia coli.

For `CC[C@H](C)[C@H](NC(=O)[C@H](CCCCN)NC(=O)[C@H](Cc1ccccc1)NC(=O)[C@H](CC(C)C)NC(=O)[C@@H]1CCCN1C(=O)[C@H](CO)NC(=O)[C@@H]1CCCN1C(=O)[C@@H](NC(=O)[C@@H](NC(=O)[C@H](C)NC(=O)[C@@H](NC(=O)CNC(=O)[C@H](CCCCN)NC(=O)CNC(=O)[C@H](C)NC(=O)[C@H](CCCN=C(N)N)NC(=O)[C@H](CCCCN)NC(=O)[C@@H](N)C(C)C)C(C)C)C(C)C)C(C)C)C(=O)N[C@H](C(=O)N[C@H](C(=O)O)C(C)C)C(C)C` [VKRAGKGVAVVPSPLFKIVV], the MIC was at least 124 µM with Bacillus cereus and above 124 µM against Escherichia coli.

These data come from DBAASP.
